Structures are written as SMILES.

In series [1] the test system is HepG2. In words: Cytotoxicity against human HepG2 cells assessed as cell viability incubated for 12 days by WST-1 assay. Type of series: functional. The following applies: HepG2, 288 h, time 12 day. A general note: Tetrazolium dyes change colour on reduction, which living cells bring about.
The nature of series [2]: Inhibition of HBV RNA polymerase. More on the design: species or system Hepatitis B virus.
In series [3] the test system is Hepatitis B virus. Description: Antiviral activity against HBV transfected in human HB611 cells assessed as reduction of HBV DNA replication incubated for 5 days by q-PCR analysis. Type of series: functional, organism-based. The following applies: HB611, 120 h.
Series [4] deals with Hepatitis B virus. In words: Antiviral activity against HBV transfected in human HB611 cells. It is filed as functional, organism-based.
A short description of series [5]: Cytotoxicity against human HB611 cells assessed as reduction in cell viability incubated for 6 to 9 days by celltiter-glo assay. The note with it: time 6-9 day. Type of series: functional. A general note: Cellular ATP, detected with luciferase, serves as a proxy for viable cell number.
Series [6] deals with Hepatitis B virus. Description: Antiviral activity against HBV infected in human HepDES19 cells assessed as inhibition of HBV replication by qPCR analysis. It is filed as functional, organism-based.
Series [7] relates to Hepatitis B virus. Description: Antiviral activity against HBV infected in human HepDES19 cells assessed as reduction in HBV replication. Type of series: functional, organism-based.
The subject of series [8] is HepG2. In words: Cytotoxicity against human HepG2 cells assessed as reduction in cell viability by MTS assay. Type of series: functional.
The test system of series [9] is HepG2. Description: Cytotoxicity against human HepG2 cells assessed as reduction in cell viability in presence of lamivudine by MTS assay. It is filed as functional.
The test system of series [10] is Hepatitis B virus. Description: Antiviral activity against HBV infected in human HepG2 2.2.15 cells assessed as reduction in intracellular DNA level. Type of series: functional, organism-based.
For series [11], the system named is Hepatitis B virus. In words: Antiviral activity against HBV infected in human HepG2 2.2.15 cells assessed as reduction in extracellular DNA level. Type of series: functional, organism-based.
For the next series, the system named is HepG2 2.2.15. Description: Cytotoxicity against human HepG2 2.2.15 cells assessed as cell viability incubated for 12 days by WST-1 assay. It is filed as functional. The note with it: HepG2 2.2.15, 288 h, time 12 day.
Series [12] relates to Hepatitis B virus. In words: Antiviral activity against HBV infected in human HepDES19 cells assessed as inhibition of extracellular HBV DNA by qPCR analysis. It is filed as functional, organism-based. A general note: In qPCR the cycle at which signal appears reflects the starting amount.
Series [13] in a line: Cytotoxicity against human HepDES19 cells assessed as reduction in cell viability incubated for 1 hr by MTS assay. It is filed as functional.
The nature of series [14]: Cytotoxicity against human HEK293 cells assessed as reduction in cell viability incubated for 1 hr by MTS assay. It is filed as toxicity, cell-based.
Series [15] can be described thus: Cytotoxicity against human LX2 cells assessed as reduction in cell viability incubated for 1 hr by MTS assay. Type of series: toxicity, cell-based. The following applies: LX-2 cells.
For series [16], the system named is Hepatitis B virus. Description: Antiviral activity against HBV infected in human HepG2-NTCP12 cells assessed as inhibition of extracellular HBV DNA incubated for 2 weeks by SYBR green dye based quantitative PCR analysis. The note with it: HepG2-NTCP12, 336 h. Type of series: functional, organism-based.
A short description of series [17]: Cytotoxicity against human primary hepatocytes assessed as cell viability incubated for 72 hrs by MTS assay. It is filed as toxicity, cell-based, Hepatocyte.
The nature of series [18]: Cytotoxicity against human primary hepatocytes assessed as cell viability incubated for 72 hrs by LDH release assay. It is filed as toxicity, cell-based, Hepatocyte.
Series [19] relates to Hepatitis B virus. In words: Antiviral activity against HBV infected in human HePAD38 cells assessed as reduction in HBV replication by qPCR analysis. It is filed as functional, organism-based.
Series [20] in a line: Cytotoxicity against human HepAD38 cells assessed as reduction in cell viability incubated for 4 days by XTT assay. Type of series: functional. The note with it: HePAD38, 96 h, time 4 day.
The test system of series [21] is Hepatitis B virus. Description: Antiviral activity against HBV infected in human HepG2-hNTCP cells assessed as reduction in HBV DNA replication by qRT-PCR analysis. It is filed as functional, organism-based.
A short description of series [22]: Cytotoxicity against human HepG2-hNTCP cells assessed as reduction in cell viability incubated for 3 days by celltiter glo assay. Type of series: functional. The note with it: 72 h, time 3 day.
The nature of series [23]: Cytotoxicity against human HB611 cells assessed as reduction in cell viability incubated for 3 days by celltiter glo assay. Type of series: functional. The note with it: HB611, 72 h, time 3 day.
Series [24] concerns Hepatitis B virus. Description: Antiviral activity against HBV D1 infected in human HepG2.2.15 cells assessed as reduction in HBV DNA production by real-time qPCR analysis. It is filed as functional, organism-based. The following applies: D1, HepG2.2.15.
In series [25] the test system is Hepatitis B virus. Description: Antiviral activity against HBV C2 infected in human Huh-7 cells assessed as reduction in HBV DNA production by real-time qPCR analysis. The following applies: C2, Huh-7. It is filed as functional, organism-based.
Series [26] deals with Hepatitis B virus. In words: Antiviral activity against entecavir-resistant HBV infected in human Huh-7 cells assessed as reduction in HBV DNA production by real-time qPCR analysis. It is filed as functional, organism-based.
Series [27] has as its system Hepatitis B virus. In words: Antiviral activity against adefovir-resistant HBV infected in human Huh-7 cells assessed as reduction in HBV DNA production by real-time qPCR analysis. It is filed as functional, organism-based.
The next series concerns Huh-7. In words: Cytotoxicity against human Huh-7 cells assessed as reduction in cell viability by MTT assay. Type of series: functional.

For the compound `O=C(/C=C/c1ccc(O)c(O)c1)OCCc1ccc(O)c(O)c1`, the CC50 in the series on HepG2 [1] was determined as 229 µM.

On to `NC(Cc1cc(O)c(O)cc1O)C(=O)O` (stereo unspecified), for which the figures for the IC50 (in [2]; in the series with Hepatitis B virus [3]) were 6.6 µM and 21 µM, respectively. Moreover, a half-maximal effect with Hepatitis B virus [4] (EC50) was put at 16.1 µM. Further, the CC50 in [5] worked out at 66 µM.

For the compound `C/C(=N\c1ccccc1N)c1c(C)cc(=O)n(O)c1O`, the figures for the EC50 in the series with Hepatitis B virus [6] and with Hepatitis B virus [7] were 0.69 µM and 0.11 µM, respectively.

Consider `O=C1Cc2ccccc2C(=O)N1O`, for which, in the series on Hepatitis B virus [6], the EC50 amounted to 0.69 µM. Also, the CC50 with HepG2 [8] and in the series on HepG2 [9] was > 100 µM in each case.

Regarding `C=CCNc1nc(N)c(/C(N)=N\C#N)s1`, the EC50 with Hepatitis B virus [10] was 0.74 µM; in the series on Hepatitis B virus [11], 0.48 µM. Moreover, the CC50 with HepG2 2.2.15 came out at 7.2 µM.

For `O=C(Nc1ccccc1)C1C(=O)N(O)C(=O)c2ccccc21` (stereo unspecified), the EC50 in the series with Hepatitis B virus [6] turned out to be 0.69 µM.

For the compound `O=C(Nc1ccc(F)cc1)C1C(=O)N(O)C(=O)c2ccccc21` (stereo unspecified), the EC50 in the series on Hepatitis B virus [6] was determined as 0.69 µM.

For the compound `O=C(NCc1ccccc1)C1C(=O)N(O)C(=O)c2ccccc21` (stereo unspecified), the EC50 in the series on Hepatitis B virus [6] was 0.69 µM.

As to `COc1ccc(CNC(=O)C2C(=O)N(O)C(=O)c3ccccc32)cc1` (stereo unspecified), the EC50 with Hepatitis B virus [6] stood at 0.69 µM.

As for `COc1ccc2c(c1)C(=O)N(O)C(=O)C2C(=O)NCc1ccc(F)cc1` (stereo unspecified), the EC50 in the series on Hepatitis B virus [6] came to 0.69 µM.

Take `O=C(NCc1ccc(F)cc1)C1C(=O)N(O)C(=O)c2cc(Cl)ccc21` (stereo unspecified): in the series on Hepatitis B virus [6], the EC50 came out at 0.69 µM.

In the case of `O=C(CCc1ccc(O)c(O)c1)OCCc1ccc(O)c(O)c1`, in the series on HepG2 [1], the CC50 amounted to 229 µM.

For the compound `COC(=O)c1c(CCl)cc(O)c(=O)c(O)c1C(=O)OC`, in the series on Hepatitis B virus [12], the EC50 was 0.4 µM. Moreover, in series [13], the CC50 is > 80 µM. The CC50 at 1 h in [14] and in [15] was > 100 µM throughout.

Take `CC(=O)c1cc(O)c(=O)c(O)cc1C`: the EC50 in the series with Hepatitis B virus [16] was 0.049 µM. Moreover, the CC50 at 72 h in [17] and in series [18] was > 100 µM each time.

For the compound `CCN(CC)C(=O)C1C(=O)N(O)C(=O)c2ccccc21` (stereo unspecified), the EC50 in the series with Hepatitis B virus [6] worked out at 0.69 µM.

For the compound `NC(=O)C(Cc1ccc(O)c(O)c1)OC(=O)/C=C/c1ccc(O)c(O)c1` (stereo unspecified), in the series with HepG2 [1], the CC50 came to 229 µM.

Take `COc1ccc(-c2cccc(Nc3cc(=O)n(O)c(=O)[nH]3)c2)cc1`: the IC50 with Hepatitis B virus [19] amounted to 8 µM. The CC50 in series [20] is > 100 µM.

As for `O=c1cc(Nc2cccc(-c3ccc(F)cc3)c2)[nH]c(=O)n1O`, in the series with Hepatitis B virus [19], the IC50 came to 5.5 µM. Also, in [20], the CC50 is > 100 µM.

Regarding `C/C(=N\OCc1ccc(F)cc1)c1c(C)cc(=O)n(O)c1O`, the 50% effective concentration (EC50) with Hepatitis B virus [16] worked out at 0.049 µM. The CC50 at 72 h in series [17] and in series [18] was > 100 µM throughout.

Take `Cc1c(O)c2cc(Br)cnc2n(O)c1=O`: in the series with Hepatitis B virus [16], the EC50 was determined as 0.049 µM. Moreover, the CC50 at 72 h in series [17] and in series [18] was > 100 µM in each case.

Consider `CC(=NOCc1ccccc1F)c1c(C)cc(=O)n(O)c1O`, for which, in the series on Hepatitis B virus [7], the EC50 turned out to be 0.11 µM.

Turning to `CC(=NOc1ccccc1)c1c(C)cc(=O)n(O)c1O`, the EC50 in the series on Hepatitis B virus [7] turned out to be 0.11 µM.

On to `COC(=O)C1C(=O)N(O)C(=O)c2cc(NC(=O)c3ccccc3)ccc21` (stereo unspecified), for which, in the series with Hepatitis B virus [7], the EC50 came out at 2.4 µM.

Turning to `N=C(N)SCCc1ccc(OCc2ccc([N+](=O)[O-])cc2)cc1`, in the series on Hepatitis B virus [21], the IC50 amounted to 7.31 µM. Besides, the CC50 in series [22] came to 37.4 µM; in series [23], 41.9 µM.

For `N#C[C@]1(CO)/C(=C\F)[C@@H](n2cnc3c(=O)[nH]c(N)nc32)C[C@@H]1O`, the IC50 stood at 1.8 µM with Hepatitis B virus [24], 0.7 µM in the series with Hepatitis B virus [25], 77.5 µM in the series on Hepatitis B virus [26] and 14.1 µM in the series on Hepatitis B virus [27]. Also, the CC50 with Huh-7 came to 169 µM.

`CC(=NOCc1ccccc1)c1c(C)cc(=O)n(O)c1O`: the EC50 in the series with Hepatitis B virus [7] is 0.11 µM.

What is called CC50 is the concentration at which the toxic effect on the cells reaches its halfway point. In general, IC50 refers to the midpoint of a concentration-inhibition curve. The term EC50 denotes the concentration at which the effect is half-maximal.

The values are drawn from ChEMBL document CHEMBL5620351, “Advancing beyond reverse transcriptase inhibitors: The new era of hepatitis B polymerase inhibitors” (Eur J Med Chem, 2023).
